Key:
[1] = biological target: T1, Aquaporin-3 (Homo sapiens, UniProt Q92482); test: Inhibition of AQP3 channel in human erythrocyte assessed as inhibition of glycerol permeability; type: cell-based
T1 sequence (Q92482 whole entry): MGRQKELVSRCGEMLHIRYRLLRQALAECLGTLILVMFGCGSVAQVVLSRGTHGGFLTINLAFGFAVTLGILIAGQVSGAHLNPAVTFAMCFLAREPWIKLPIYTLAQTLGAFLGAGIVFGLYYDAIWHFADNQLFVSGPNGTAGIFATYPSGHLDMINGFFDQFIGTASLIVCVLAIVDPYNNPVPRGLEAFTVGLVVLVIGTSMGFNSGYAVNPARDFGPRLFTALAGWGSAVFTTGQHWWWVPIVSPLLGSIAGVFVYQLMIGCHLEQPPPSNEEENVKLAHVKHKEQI

[2] = biological target: T1, Aquaporin-3; test: Inhibition of human AQP3 expressed in CHO cells; type: cell-based
[3] = biological target: T2, Aquaporin-3 (Mus musculus, UniProt Q8R2N1); test: Inhibition of mouse AQP3
T2 sequence (Q8R2N1 whole entry): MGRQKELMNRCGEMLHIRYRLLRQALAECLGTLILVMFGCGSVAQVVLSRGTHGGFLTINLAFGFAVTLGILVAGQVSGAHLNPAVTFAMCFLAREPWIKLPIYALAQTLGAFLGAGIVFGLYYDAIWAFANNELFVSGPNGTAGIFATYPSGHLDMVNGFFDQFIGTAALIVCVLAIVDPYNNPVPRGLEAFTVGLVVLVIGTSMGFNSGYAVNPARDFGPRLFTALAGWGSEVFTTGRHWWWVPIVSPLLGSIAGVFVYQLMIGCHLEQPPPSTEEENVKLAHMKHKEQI

[4] = biological target: T3, Aquaporin-9 (Mus musculus, UniProt Q9JJJ3); test: Inhibition of mouse AQP9
T3 sequence (Q9JJJ3 whole entry): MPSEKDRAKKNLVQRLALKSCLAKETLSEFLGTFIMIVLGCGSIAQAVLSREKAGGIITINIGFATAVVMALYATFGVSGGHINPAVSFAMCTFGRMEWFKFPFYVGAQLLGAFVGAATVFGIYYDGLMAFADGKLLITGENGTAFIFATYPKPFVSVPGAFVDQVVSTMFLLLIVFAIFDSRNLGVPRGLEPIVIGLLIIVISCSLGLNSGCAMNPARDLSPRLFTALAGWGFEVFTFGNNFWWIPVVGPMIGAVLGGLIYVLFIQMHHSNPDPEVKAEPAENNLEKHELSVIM

[5] = biological target: T4, Aquaporin-1 (Homo sapiens, UniProt P29972); test: Binding affinity to AQP1 (unknown origin) expressed in HEK cells assessed as dissociation constant; type: cell-based
T4 sequence (P29972 whole entry): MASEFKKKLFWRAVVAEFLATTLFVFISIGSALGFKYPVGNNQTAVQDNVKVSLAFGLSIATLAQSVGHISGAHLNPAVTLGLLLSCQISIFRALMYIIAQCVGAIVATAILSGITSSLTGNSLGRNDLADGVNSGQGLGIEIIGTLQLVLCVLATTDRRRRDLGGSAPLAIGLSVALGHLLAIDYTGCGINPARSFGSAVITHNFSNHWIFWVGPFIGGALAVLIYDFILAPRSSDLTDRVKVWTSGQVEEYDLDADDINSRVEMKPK

[6] = Permeability of compound; type: ADME; details: not told; read-out: permeability
[7] = biological target: T5, Aquaporin-9 (Homo sapiens) (UniProt O43315); test: Inhibition of AQP9 (unknown origin) expressed in xenopus laevis oocytes at 100 uM relative to control; type: cell-based; details: Oocyte
T5 sequence (whole entry): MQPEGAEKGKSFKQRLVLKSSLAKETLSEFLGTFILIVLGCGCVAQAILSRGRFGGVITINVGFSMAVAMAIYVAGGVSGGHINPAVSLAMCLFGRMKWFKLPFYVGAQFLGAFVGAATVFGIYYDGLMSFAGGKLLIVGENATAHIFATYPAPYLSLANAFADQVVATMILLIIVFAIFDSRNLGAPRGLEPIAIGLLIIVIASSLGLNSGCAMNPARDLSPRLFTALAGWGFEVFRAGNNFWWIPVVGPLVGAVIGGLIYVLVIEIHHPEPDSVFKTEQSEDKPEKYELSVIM

[8] = biological target: T6, Aquaporin-4 (Homo sapiens, UniProt P55087); test: Inhibition of AQP4-M23 (unknown origin) relative to control; details: concentration not given here
T6 sequence (P55087 whole entry): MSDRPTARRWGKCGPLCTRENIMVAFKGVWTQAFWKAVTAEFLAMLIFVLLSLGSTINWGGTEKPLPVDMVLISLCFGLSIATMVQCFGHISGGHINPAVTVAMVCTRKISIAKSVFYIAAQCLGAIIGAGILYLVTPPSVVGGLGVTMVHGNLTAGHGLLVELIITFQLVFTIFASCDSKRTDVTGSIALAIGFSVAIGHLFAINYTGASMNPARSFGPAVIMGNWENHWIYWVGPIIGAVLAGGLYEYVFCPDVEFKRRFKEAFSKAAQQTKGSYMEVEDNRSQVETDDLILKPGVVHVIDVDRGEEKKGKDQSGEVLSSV

[9] = biological target: T7, Aquaporin-1 (Homo sapiens) (UniProt P29972); test: Inhibition of AQP1 (unknown origin) at 20 uM relative to control
T7 sequence (whole entry): T4 sequence (P29972 whole entry)

[10] = biological target: T6, Aquaporin-4; test: Inhibition of AQP4-M23 (unknown origin)
[11] = biological target: T1, Aquaporin-3; test: Inhibition of AQP3 (unknown origin)

CCOC(=O)c1ccc(NC(=O)NCc2ccc(-n3cccn3)cc2)cc1
IC50 [1]: ~600 nM | IC50 [2]: 200 nM | IC50 [3]: 700 nM | IC50 [4]: 1100 nM

CC(=O)Nc1nnc(S(N)(=O)=O)s1 [ACETAZOLAMIDE]
Kd [5]: 174000 nM

O=C(Nc1csc([N+](=O)[O-])c1)Nc1c(Cl)cccc1Cl
IC50 [1]: ~200 nM | IC50 [2]: ~100 nM

O=C(CCc1ccc(O)cc1)c1c(O)cc(O)cc1O [PHLORETIN]
Papp [6]: ~2.8 ×10⁻⁶ cm/s | inhibition [7]: 86%

O=C(Nc1nncs1)c1cccnc1
inhibition [8]: 73% | inhibition [9]: 56% | IC50 [10]: 3000 nM

Cc1ccc(CC2(OCCN(C)C)CCC(C(C)(C)C)CC2)cc1 (stereo not drawn)
IC50 [11]: 27000 nM

From ChEMBL document CHEMBL6182835, “Distinctive roles of aquaporins and novel therapeutic opportunities against cancer” (RSC Med Chem, 2025)
